Read-outs that look alike come from different tables or passages of the source.
Legend:
[1] = Liver microsomal metabolism in vitro, rat LM clearance; type: in vitro ADME; conditions: rat liver microsomes in vitro
Procedure: In addition, the LC-MS/MS method was used to determine the substrate metabolites of 5 major subtypes of human liver microsomal CYP450 enzymes (including CYP1A2, CYP2D6, CYP2C8, CYP2C9, and CYP3A4). The substrate method was used to determine the activity of human liver microsomal CYP450 enzyme. The established incubation system was verified using known inhibitors to investigate the inhibitory effect of the compound on CYP450 enzyme. For the enzyme induction test, a primary cultured human hepatocyte incubation system was used. 3-methylcholanthrene, phenobarbital, and rifampicin were used as positive control inducers of CYP1A2, CYP2B6, and CYP3A4, and phenacetin, bupropion, and testosterone were used as the substrate for CYP1A2, CYP2B6, and CYP3A4. The CYP450 enzyme activity was calculated by measuring the generation rate of 3 specific substrate metabolites in the incubation solution. Meanwhile, the total RNA was extracted from the human hepatocytes after incubation, and the real-time fluorescence quantitative PCR method was used to determine the mRNA expression level of CYP1A2, […], and CYP3A4. The enzyme activity and mRNA transcription level were used as endpoints to investigate the inductive effect of the compound on human liver P450 isoenzymes CYP1A2, […], and CYP3A4. The liver microsomal metabolism parameters in vitro are shown in Table 2B3 taking Compound 8 as an example.

[2] = system: mouse model of ragweed pollen-induced allergic conjunctivitis; assay: Mouse model of ragweed pollen-induced allergic conjunctivitis; type: in vivo, Balb/c mice; conditions: for Clinical symptom score: twice a day for 14 days, Day 14 within 30 minutes after final challenge
Procedure: SPF-grade Balb/c mice (half male and half female, 6-8 weeks old) were used as experimental animals. On Day 0 and Day 6, ragweed pollen footpad injection was injected subcutaneously into the footpads of mice for sensitization (65 μl per mouse). On Days 10-14, in the model group, eye drop of ragweed pollen was applied to both eyes of the mice (10 μl per mouse) once a day. The eye drops were applied for 5 consecutive days to trigger local allergic conjunctivitis (Wu B, et al., Frontiers in Immunology, 2021, 12:4754). […] On Day 14, within 30 minutes after the final challenge, the ocular clinical symptoms of the mice were observed under a microscope and scored according to the scoring criteria reported by Magone et al. (MerayoLloves J, et al., J Allergy Clin Immunol (1996) 97(5):1129-40; Magone M T, et al., Clin Immunol Immunopathol (1998) 87(1):75-84), the allergic response of the eyes were observed, including 4 indexes: conjunctival edema, conjunctival congestion, eyelid congestion and edema, and tearing. The scores were recorded as 0-3 points according to the severity (including none, mild, moderate and severe). The left eye of the mouse was taken with the eyelid (keeping the conjunctiva intact), fixed with polyformaldehyde, sectioned in paraffin, Hematoxylin-Eosin stained (HE stained), and toluidine blue stained (for detection of mast cells). Photographs were taken to analyze the inflammatory cell infiltration of the conjunctival tissue, and observe whether the mast cells in the conjunctiva aggregated and whether a phenomenon of degranulation occurred. The expression of allergic indicators IL-4 and IgE in the conjunctival tissue was detected by immunohistochemistry.
The mouse eye, including the eyelids (with intact conjunctiva), was sectioned after deparaffinization, and subjected to antigen retrieval and serum blocking.
Diluted IL-4 or IgE antibodies were added and incubated overnight. After incubation with secondary antibodies, DAB staining was performed, followed by counterstaining with hematoxylin. The slides were then mounted and observed under an […], with photographs taken. Semi-quantitative analysis was conducted using Image-J software. Based on the cumulative optical density and regional area values of each image, the average optical density was calculated to detect the positive expression of IL-4 or IgE.

[3] = Drug concentration in rat retinas after intraocular injection (HPLC); type: in vivo, Wistar rats; conditions: retina
Excerpt: 1.1 Experimental aminals: SPF-grade male Wistar rats weighed 180-220 g.
1.2 Drugs and reagents: Compound 71; sodium chloride injection (Shandong Qidu Pharmaceutical Co., Ltd., Batch No.: 3B151014124); acetonitrile (chromatographically pure, TEDIA, USA); methanol (chromatographically pure, SIGMA-ALDRICH product); triethylamine (analytically pure, Hangzhou Gaojing Fine Chemical Co., Ltd.).
1.3 Experimental grouping and administration: according to the sampling time, 33 male Wistar rats were divided into 11 groups (three rats per group) of: (1) control group; (2) 0 h; (3) 2 h; (4) 6 h; (5) 24 h; (6) 48 h; (7) 72 h; (8) 5 d; (9) 7 d; (10) 10 d; (11) 14 d. Three rats in the control group were injected with solvent (sterile normal saline) intraocularly, and the remaining 30 rats were injected with Compound 71 intraocularly at a concentration of 0.5% by using a 5 μL microinjector, and 5 μL of drug was injected per bulbus oculi.
1.4 Sampling and detection index: The retina of the rat in the control group was taken on Day 14 (14 d), and the retina of the remaining 30 rats was taken at the corresponding time points. The retina were frozen in liquid nitrogen, and then subjected to the subsequent HPLC detection.
1.5.1 Chromatographic conditions: The mobile phase was chromatographic grade acetonitrile-water=25-75 (v/v). The flow rate was 0.5 mL/min. The column temperature was 25° C. The UV detection wavelength was 254 nm. The injection volume was 20 μL.
1.5.2 Sample processing and preparation: the sample of the rat retina was taken out from the ultra-low temperature (−80° C.) refrigerator, accurately weighed and placed in a glass homogenizer, and ethyl acetate as an organic solvent pre-cooled in a 4° C. refrigerator was added at a ratio of 100 mL/g. The homogenizer was placed in an ice bath for homogenization. After homogenization, all the homogenate was poured into a 5 mL stoppered centrifuge tube. The centrifugation was performed at a low temperature of 4° C. for 5 min (5000 r/min). All the organic phase as the upper layer was accurately taken out and placed in a glass tube with conical bottom. The remaining residue of retina was extracted with 2 mL ethyl acetate repeatedly once. After centrifugation, the two organic phases were combined. Then, the centrifuge tube with conical bottom was blowed for dryness in a nitrogen flow in a 45° C. water bath. The residue was redissolved with 0.1 mL of chromatographic methanol, vortex mixed for 1 min, and centrifuged for 5 min at a high speed of 18000 r/min. 20 μL of the supernatant was taken, and analyzed in a high-performance liquid chromatography system.
1.5.3 Sample determination: After intraocular injection of 5 μL of 0.5% Compound 71, the retina was taken at different time points to analyze the drug content of the test compound in the retina.
1.5.4 Experimental results and conclusions: According to the retinal drug concentration-time curve, it is in conformity to the non-absorption two-compartment model. According to the pharmacokinetic non-absorption two-compartment model theory, the pharmacokinetic parameters of the drug were calculated.

[4] = immunohistochemistry, 2% eye drop
[5] = intraocular injection of 5 μL of 0.5% per eye, two-compartment model

| Compound | Rat LM clearance [1] [mL/min/kg] | inflammatory cell infiltration of conjunctival tissue (HE staining; in words) ([2]; 0.5% eye drop) | mast cell degranulation (toluidine blue staining; in words) ([2]; 0.5% eye drop) | Clinical symptom score ([2]; 0.5% eye drop) | inflammatory cell infiltration of conjunctival tissue (HE staining; in words) ([2]; 2% eye drop) | mast cell degranulation (toluidine blue staining; in words) ([2]; 2% eye drop) | Clinical symptom score ([2]; 2% eye drop) | expression of IgE in ocular tissue (average optical density) ([2]; immunohistochemistry, 0.5% eye drop) | expression of IL-4 in ocular tissue (average optical density) [2, 4] | expression of IgE in ocular tissue (average optical density) [2, 4] | concentration at 14 d ([3]; male, Wistar, rat, other: intraocular injection, 5 μL of 0.5% solution per eye, Day 14 after intraocular injection of 0.5% (5 μL per eye), read-out: retinal concentration) [nM] | half-life ([3]; male, Wistar, rat, topical or ocular, 5 μL of 0.5% solution per eye, intraocular injection of 5 μL of 0.5% per eye, two-compartment model, read-out: Distribution half-life (converted)) [h] | half-life ([3]; male, Wistar, rat, topical or ocular, 5 μL of 0.5% solution per eye, intraocular injection of 5 μL of 0.5% per eye, two-compartment model, read-out: Elimination half-life (converted)) [h] | AUC ([3]; male, Wistar, rat, topical or ocular, 5 μL of 0.5% solution per eye, intraocular injection of 5 μL of 0.5% per eye, two-compartment model, read-out: Area under the time curve AUC) [µg·h/mL] | Apparent distribution volume [3, 5] [L] | Total clearance CLT [3, 5] [L/h] |
| --- | --- | --- | --- | --- | --- | --- | --- | --- | --- | --- | --- | --- | --- | --- | --- | --- |
| CCOc1ccc(-c2c(F)cc(NC(=O)N3CCC(C(C)(C)C)CC3)cc2-c2nn[nH]n2)cn1 [Compound 8, 4-(tert-butyl)-N-(4-(6-ethoxypyrid-3-yl)-3-fluoro-5-(2H-tetrazol-5-yl)phenyl)piperidine-1-carboxamide] | 9.83 | inflammatory cell infiltration was still visible | a few samples showed manifest mast cell degranulation | 3.67 ± 0.36 | an improvement in inflammatory cell infiltration | no mast cell degranulation was observed | 1.75 ± 0.22^♦ | 0.72±0.12 | 0.24±0.06 | 0.54±0.06 | – | – | – | – | – | – |
| CCOc1ccc(-c2ccc(NC(=O)N[C@H]3CC[C@H](C)CC3)cc2-c2nn[nH]n2)cn1 [Compound 71, 1-(4-(6-ethoxypyrid-3-yl)-3-(2H-tetrazol-5-yl)phenyl)-3-((trans)-4-methylcyclohexyl)urea] | – | – | – | – | – | – | – | – | – | – | 1240 | 6.97 | 408 | 901 | 0.001676 | 5.55e-05 |

Reference: US20250353835A1, “N-TETRAZOLYL ARYL UREA-BASED DERIVATIVES, PREPARATION METHOD THEREFOR, AND USE THEREOF” (Hangzhou Yirui Pharmaceutical Technology Co., Ltd, priority 2022, published 2025)
